Where two headings read alike, the source gives them in different places.
Columns and labels:
HCT116/VM46 = test: cells; assay type: cell-based, human; conditions: for IC50: Homo sapiens
L1210 = test: cells; assay type: cell-based, mouse; conditions: Mus musculus
[1] = test system: L1210, HCT116, HCT116/VM46; test: cytotoxic activity in the cell-based assays, overall comparison with the parent compound; conditions: for enhancement of cytotoxic activity by C-10′ fluorine substitution: vs natural product without fluorine; for fold more potent than the natural products themselves: vs vinblastine / vincristine, Table 2C
HCT116 = test: cells; assay type: cell-based, human; conditions: Homo sapiens
[2] = HCT-116/VM46, Table 2B, C10′-substituted vinblastines, single evaluations, read-out: IC50 (nM) HCT116/VM46
[3] = L1210, Table 2B, C10′-substituted vinblastines, single evaluations, read-out: IC50 (nM) L1210
[4] = HCT-116, Table 2B, C10′-substituted vinblastines, single evaluations, read-out: IC50 (nM) HCT116

Row | SMILES | IC50 (HCT116/VM46; HCT-116/VM46, read-out: IC50 (nM) HCT116/VM46) | IC50 (L1210; L1210, read-out: IC50 (nM) L1210) | enhancement of cytotoxic activity by C-10′ fluorine substitution [1] | IC50 (HCT116; HCT-116, read-out: IC50 (nM) HCT116) | IC50 (HCT116/VM46; [2]) | increased activity against vinblastine resistant cell line (HCT116/VM46) (HCT116/VM46; vs vinblastine) | IC50 (L1210; [3]) | fold more potent than the natural products themselves [1] | IC50 (HCT116; [4]) | IC50 (HCT116/VM46; HCT-116/VM46, Table 2C, side-by-side, multiple examinations with several independent samples, read-out: IC50 (nM) HCT116/VM46) | IC50 (L1210; L1210, Table 2C, side-by-side, multiple examinations with several independent samples, read-out: IC50 (nM) L1210) | IC50 (HCT116; HCT-116, Table 2C, side-by-side, multiple examinations with several independent samples, read-out: IC50 (nM) HCT116)
1 | CCC1=C[C@@H]2CN(CCc3c([nH]c4ccc(F)cc34)[C@@](C(=O)OC)(c3cc4c(cc3OC)N(C)C3C(O)(C(=O)OC)[C@H](OC(C)=O)[C@]5(CC)C=CCN6CC[C@]43[C@@H]65)C2)C1 (some centres unmarked) [Compound 19a, 10′-fluoroanhydrovinblastine] | 290 nM | 30 nM | about 8 fold | 50 nM | – | – | – | – | – | – | – | –
2 | CC[C@]1(O)C[C@@H]2CN(CCc3c([nH]c4ccc(F)cc34)[C@@](C(=O)OC)(c3cc4c(cc3OC)N(C)C3C(O)(C(=O)OC)[C@H](OC(C)=O)[C@]5(CC)C=CCN6CC[C@]43[C@@H]65)C2)C1 (some centres unmarked) [Compound 19b, 10′-fluorovinblastine] | – | – | about 8 fold | – | 80 nM | about 8 fold | 0.7 nM | about 8 fold | 0.9 nM | – | – | –
3 | CC[C@]1(O)C[C@@H]2CN(CCc3c([nH]c4ccc(OC)cc34)[C@@](C(=O)OC)(c3cc4c(cc3OC)N(C)C3C(O)(C(=O)OC)[C@H](OC(C)=O)[C@]5(CC)C=CCN6CC[C@]43[C@@H]65)C2)C1 (some centres unmarked) [Compound 22b, 10′-methoxyvinblastine] | – | – | – | – | > 10000 nM | – | 670 nM | – | 720 nM | – | – | –
4 | CC[C@]1(O)C[C@@H]2CN(CCc3c([nH]c4ccc(F)cc34)[C@@](C(=O)OC)(c3cc4c(cc3OC)N(C=O)C3C(O)(C(=O)OC)[C@H](OC(C)=O)[C@]5(CC)C=CCN6CC[C@]43[C@@H]65)C2)C1 (some centres unmarked) [Compound 28, 10′-fluorovincristine] | – | – | – | – | – | – | – | about 8 fold | – | 90 nM | 0.7 nM | 1 nM

Reference: US8940754B2, “10′-fluorinated Vinca alkaloids provide enhanced biological activity against MDR cancer cells” (priority 2010, dated 2015)
